Data from patent publication US12303898B2, “Microfluidic devices and methods of use” (The Governing Council of the University of Toronto, priority 2018, dated 2025).

What was measured:
[1] = target: T1, QPCTL (Homo sapiens, UniProt Q9NXS2); assay: Flow cytometry and immunofluorescence of CD47 antibody binding in HAP1 cells after QPCTL inhibitor treatment; assay type: cell-based; conditions: inhibitor treatment (FIG. 14B, 14D, 14E), CC2C6 detects pyro-Glu modified CD47
T1 construct: endogenous in cells; host or cells: HAP1 cells (Horizon, clone C631)
T1 sequence (Q9NXS2 whole entry): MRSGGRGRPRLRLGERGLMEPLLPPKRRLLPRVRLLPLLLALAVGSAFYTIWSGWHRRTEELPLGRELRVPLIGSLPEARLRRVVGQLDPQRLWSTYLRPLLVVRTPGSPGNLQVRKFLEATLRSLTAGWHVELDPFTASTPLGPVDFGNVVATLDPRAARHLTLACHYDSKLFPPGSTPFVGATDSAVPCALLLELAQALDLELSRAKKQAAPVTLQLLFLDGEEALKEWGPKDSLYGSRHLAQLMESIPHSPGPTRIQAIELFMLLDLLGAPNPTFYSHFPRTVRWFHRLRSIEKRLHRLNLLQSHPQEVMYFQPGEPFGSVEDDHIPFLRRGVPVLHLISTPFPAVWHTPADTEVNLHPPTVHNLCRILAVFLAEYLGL
Experimental: Flow cytometry. Cells were dissociated with 0.125% trypsin and washed once in once in Flow buffer (PBS with 2% BSA). For cell-surface analysis, antibody staining was carried out in Flow buffer for 30 min on ice at 4° C. in the dark. For intracellular antigens, cells were first fixed with 4% PFA (Electron Microscopy Sciences) in PBS for 10 min on ice, followed by permeabilization using Flow buffer with 0.1% TritonX-100 (Sigma) for 5 min at room temperature. Cells were washed twice with Flow buffer, followed by staining for 30 min on ice at 4° C. in the dark. Stained cells were washed thrice with Flow buffer and 7-AAD viability dye (3-5 μl, BioLegend) was added before quantification. […] Stained cells were quantified on an LSRII flow cytometer (BD Biosciences) or an iQue Screener PLUS (IntelliCyt), and data were analyzed using FlowJo software (RRID:SCR_008520). […]
Immunofluorescence microscopy. […] For mean fluorescence intensity (MFI) measurements, Membrite™ staining intensity was used for automated image segmentation (ImageJ custom macro, available upon request) for operator independent unbiased selection of primary regions of interest (ROI) masks (in the green channel) and the mean fluorescence intensity was measured from the APC and/or Alexa594 channel. […]

[2] = tested on: CD47; assay: Validation of CD47 sgRNA knock-out HAP1 cell lines by flow cytometry and microfluidic sorting; assay type: cell-based, human; conditions: HAP1 cells, CD47 gene (FIG. 11C)
From the text: As shown in FIG. 11A-C, this included sorting the wildtype (WT) HAP1 cells at different flow rates to decide on the ideal operating conditions, assessing the sorting of HAP1 cells transduced with sgRNAs targeting the CD47 gene (which should result in a decrease in the number of CD47+ cells), and mixing WT and clone cells together, sorting them and recovering the initial ratios. Experimental parameters were designed to have the majority of WT HAP1s be sorted into the middle bin thus upregulation and downregulation of CD47 could be assessed. […]
MICS sorting. […] Cells were sorted by MICS at a concentration of ˜5×10^6 cells/ml in HBSS with 2% BSA; initial cell concentration was measured using a Countess Automated Cell Counter (Invitrogen). […] Sorted samples were collected in their respective syringes, and the volume of solution collected in each syringe was measured by weight. […] Each sample was then loaded onto a 10-chambered microscope slide (Quick Read 3805, Globe Scientific) and cells were counted under fluorescent excitation using a custom counting macro and a Nikon TI Eclipse microscope. Sort efficiency was calculated by dividing the number of cells collected in the medium and high outlets by the total number of cells collected (low, medium and high). […]

[3] = tested on: QPCT target loci; assay: CRISPR editing analysis (TIDE / ICE) of double-sgRNA infected samples, QPCT target loci; assay type: cell-based, human; conditions: two independent experiments; for KO-score: ICE; for mean percent edited: TIDE
Experimental: (§1) Generation of CD47, QPCT and QPCTL knock-out cells. For transduction experiments using cell pools, single-stranded sgRNA oligos were annealed using T4 PNK in T4 ligation buffer (both NEB), and ligated into digested (BsmBI; NEB), phosphatase-treated (rSAP or CIP, NEB) and gel-purified modified pLCKO (for HAP1-Cas9) or pLCV2 (for HAP1, 293T and KMS11) backbones^24,25 using T4 DNA ligase. All plasmids were Sanger sequence verified and virus was prepared and titered as described above. HAP1, HAP1-Cas9 cells, 293T cells or KMS11 cells were infected with target and control gRNAs (MOI<1) in presence of 8 μg/ml polybrene. 24 h post infection, the medium was replaced with fresh medium containing puromycin (1 ug/ml for HAP1 and HAP1-Cas9, 1-2 ug/ml for 293T, 0.5 ug/ml for KMS11) and cells were incubated for 48 h. Cells were further cultured in selection-free medium as indicated for individual experiments (typically T3-T6), and passaged every 3-4 days. […] For infections with two sgRNAs (HAP1-Cas9 only), the second sgRNA was cloned into pLCKO hygro. Selection was carried out in puromycin (1 ug/ml) and hygromycin (800 ug/ml)-containing medium for the first 48 h, then in hygromycin-only medium for further 4-5 days. For single-cell knock-out clones (HAP1 only), sgRNAs were cloned into modified PX459v2.0 (from Addgene #62988, 1 kb stuffer sequence added). HAP1 cells were transfected using Lipofectamine 3000 (3.75 μl and 2.3 μg plasmid per 6-well), selected with puromycin for 48 h as above and seeded in limiting dilutions (1 cell/100 μl/96-well) 3 days later. Single-cell colonies were expanded, cryo-banked (in standard medium with 10% DMSO and a total of 20% FBS) and analyzed for mutations as described below. An sgRNA targeting the AAVS1 locus was used as negative control.
CRISPR editing analysis. For analysing indels after CRISPR-mediated editing, genomic DNA was isolated using the QIAamp DNA Blood Mini kit (Qiagen) or the Extracta DNA Prep kit (Quantabio). sgRNA target regions (100-200 bp up- and 500 bp downstream of sgRNA sequence) were amplified by touchdown PCR (−0.5° C./cycle from 72° C. to 60° C. plus 10 additional cycles at 59° C.) from 50-100 ng input DNA, PCR products were purified using the PureLink Quick PCR purification kit (Invitrogen) if necessary and analyzed by Sanger sequencing. Sequences were analyzed to determine the percentage of edited sequences contained in the sample using TIDE^49 and a “KO-score” using ICE^50 (Synthego). Non-edited cells amplified with the same primers were used as control samples. A representative analysis of double-sgRNA infected samples from two independent experiments yielded the following editing results for QPCT and QPCTL target loci (by sgRNA; mean percent edited/KO-score±SD): QPCTL #1 58.2/NA±16.2/N, QPCTL #2 33.23/47±32.96/0, QPCT #1 33.15/56±36.51/0, QPCT #2 80.2/76.4±19.85/2.42, QPCT #3 68.18/36.33±4.29/2.08; AAVS1/CD47 #1 (background or off-target, mean±SD over all QPCT and QPCTL target loci) 14.4/1.33±14.95/0.58. For single-cell derived clones, TIDE and ICE were used for screening purposes, and mutations were independently confirmed by PCR, Sanger sequencing and sequence alignment as described.

[4] = tested on: QPCTL target loci; assay: CRISPR editing analysis (TIDE / ICE) of double-sgRNA infected samples, QPCTL target loci; assay type: cell-based, human; conditions: two independent experiments; for mean percent edited: TIDE
Experimental: as §1, with “For single-cell knock-out clones (HAP1 only), sgRNAs were cloned into modified PX459v2.0 (from Addgene #62988, 1 kb stuffer sequence added). HAP1 cells were transfected using Lipofectamine 3000 (3.75 μl and 2.3 μg plasmid per 6-well), selected with puromycin for 48 h as above and seeded in limiting dilutions (1 cell/100 μl/96-well) 3 days later.” left out, “An sgRNA targeting the AAVS1 locus was used as negative control.” left out
CRISPR editing analysis. For analysing indels after CRISPR-mediated editing, genomic DNA was isolated using the QIAamp DNA Blood Mini kit (Qiagen) or the Extracta DNA Prep kit (Quantabio). sgRNA target regions (100-200 bp up- and 500 bp downstream of sgRNA sequence) were amplified by touchdown PCR (−0.5° C./cycle from 72° C. to 60° C. plus 10 additional cycles at 59° C.) from 50-100 ng input DNA, PCR products were purified using the PureLink Quick PCR purification kit (Invitrogen) if necessary and analyzed by Sanger sequencing. Sequences were analyzed to determine the percentage of edited sequences contained in the sample using TIDE^49 and a “KO-score” using ICE^50 (Synthego). […]

Compound	KO-score [3]	mean percent edited [3] [%]	also measured
CCCOc1ccc([C@H]2CNC(=O)N2c2ccc3[nH]cnc3c2)cc1 [PQ912]			CC2C6 binding [1]: decreased
Guide #4: sgRNA targeting CD47 from the TKOv3 library, sequence GAAGACTATACAACCTCCTA (chemistry not fully specified)			gene inactivation [2]: ineffective at gene inactivation
QPCT #1: sgRNA from the TKOv3 library, sequence TCAAGGATCACTCTTTGGAG (chemistry not fully specified)	56	33.15	
QPCT #2: sgRNA from the TKOv3 library, sequence AGAGGCACCAGCCAACTGCA (chemistry not fully specified)	76.4	80.2	
QPCT #3: sgRNA from the TKOv3 library, sequence GACCAAATGTCGTTTAGCAG (chemistry not fully specified)	36.33	68.18	
QPCTL #1: sgRNA from the TKOv3 library, sequence GGGTTCGCACAACCAGCAGG (chemistry not fully specified)			mean percent edited [4]: 58.2%
QPCTL #2: sgRNA from the TKOv3 library, sequence ACAGGGCACAGCCGAATCCG (chemistry not fully specified)			KO-score ([4]; ICE): 47; mean percent edited [4]: 33.23%
